Where two headings read alike, the source gives them in different places.
Tested on: L4 Heartworm (D. immitis)
Assay: In vitro L4 heartworm (D. immitis) larval motility assay
Format: cell-based, Dirofilaria immitis

Compound | effect in causing mortality or paralysis | Observation score (larval motility), duplicate observations (1 mcg/ml, 2 h post treatment) | Observation score (larval motility), duplicate observations (1 mcg/ml, 4 h post treatment) | Observation score (larval motility), duplicate observations (1 mcg/ml, 24 h post treatment) | Observation score (larval motility), duplicate observations (1 mcg/ml, 48 h post treatment) | Observation score (larval motility), duplicate observations (1 mcg/ml, 72 h post treatment) | Observation score (larval motility), duplicate observations (10 mcg/ml, 2 h post treatment) | Observation score (larval motility), duplicate observations (10 mcg/ml, 4 h post treatment) | Observation score (larval motility), duplicate observations (10 mcg/ml, 24 h post treatment) | Observation score (larval motility), duplicate observations (10 mcg/ml, 48 h post treatment) | Observation score (larval motility), duplicate observations (10 mcg/ml, 72 h post treatment) | Observation score (larval motility), duplicate observations
CO[C@H]1C[C@H](O[C@@H]2/C(C)=C/C[C@@H]3C[C@@H](C[C@]4(CC[C@H](C)[C@@H](C5CCCCC5)O4)O3)OC(=O)[C@@H]3C=C(C)/C(=N/O)[C@H]4OC/C(=C\C=C\[C@@H]2C)[C@]43O)O[C@@H](C)[C@@H]1O [(1), 5-oximino 22,23-dihydro-25-cyclohexylayermectin B1 monosaccharide] | only a modest effect | 5/5 | 5/5 | 5/5 | 5/5 | 5/5 | 2/2 | 2/0 | 3/3 | 4/4 | 3/4 | –
N#Cc1nn(-c2c(Cl)cc(C(F)(F)F)cc2Cl)c(N)c1[S+]([O-])C(F)(F)F (stereo not shown) [Fipronil, 5-amino-3-cyano-1-(2,6-dichloro-4-trifluorome-thylphenyl)-4-trifluoromethylsulphinylpyrazole] | no observable effect at all | – | – | – | – | – | – | – | – | – | – | 5/5

Source: patent US20060105969A1, “Anthelmintic compositions” (priority 1999, published 2006)
